Laboratory results: patent publication US11905268B2, “Anthranilic acid derivatives and their use in the treatment of human cancers” (UNIVERSITY OF CENTRAL FLORIDA RESEARCH FOUNDATION, INC., priority 2018, dated 2024)
Where two headings read alike, the source gives them in different places.

Experiments:
CHO cells [1] = test: Cytotoxicity screen in CHO cells; details: for IC50 at 48 h: Chinese hamster, CHO K1 cells; for Tox (Ant44) / tox (DFMO Assay): toxic above the stated concentration; for Tox (Ant44): listed with Ant44 assay; for tox (DFMO Assay): listed with DFMO assay
Description: CHO K1 cells were grown in growth medium to 70% confluency and washed in PBS and trypsinized. […] Cells were spun at 100×g for 1 minute and incubated at 37° C. in a humidified CO2 incubator for 24 hours. […] Cellular ATP content was then assayed by adding 3 uL of ATPLite with a Beckman BioRAPTR FRD dispenser and incubated for 10 minutes at room temperature. Plates were spun at 200×g for 1 minute and read on a Perkin Elmer Viewlux multimode plate reader using luminescence mode. This assay was used for testing dose-response of dry powders.
CHO K1 cells were grown in growth medium to 70% confluency and washed in PBS and trypsinized. Cells were plated in assay medium at 10000 cells/mL for 200 cells per well using a Thermo Multidrop Combi in 20 uL into a white Greiner plate. Cells were spun at 100×g for 1 minute and incubated at 37° C. in a humidified CO2 incubator for 24 hours. […] This was followed by adding by 10 μL of assay medium to all wells with a Beckman BioRAPTR FRD dispenser. The plates were spun at 200×g for 1 minute and incubated at 37° C. in a humidified 5% CO2 incubator for 48 hours. Cellular ATP content was then assayed by adding 20 μL of ATPLite with a Beckman BioRAPTR FRD dispenser and incubated for 10 min at room temperature. Plates were spun at 200×g for 1 minute and read on a Perkin Elmer Envision for multimode plate reader using luminescence mode. Duplicates were run for each compound concentration, and the curves represent the average of the duplicates as percent viability.
The final compound concentration was either 20 μM or 10 μg/mL (depending upon the compound source). A successful PTI in Assay 1 would block the uptake of the toxic Ant44 probe and rescue the cells back to >90% relative growth vs an untreated control. It was critical to also evaluate the toxicity of the PTI by itself as a toxic PTI would give a false negative in Assay1 (and a false positive in Assay 2). […] Assay 2 then evaluated the ability of the compound to inhibit the uptake of a rescuing dose of Spermidine (Spd, 1 μM) into DFMO-treated CHO cells.

[2] = tested on: DFMO treated Chinese hamster ovary (CHO) cells; test: DFMO/spermidine rescue assay in CHO cells (Assay 2); type: cell-based; details: for IC50 / EC50: Cricetulus griseus; for EC50: Table 2
Description: In the reconfirmation assay compounds were run in quadruplicate. […] A PTI compound is expected to block the entry or disrupt the intracellular trafficking of spermidine and inhibit the ability of spermidine to rescue the growth or viability of DFMO treated cells.
DFMO/Spermidine assay Here cells were treated with an inhibitor of polyamine biosynthesis (DFMO) and rescued back to high viability by the presence of exogenous polyamine (spermidine). Putative PTI compounds were screened for their ability to block the entry or intracellular trafficking of exogenous spermidine (or otherwise disrupt the intracellular trafficking of spermidine) by measuring cell viability in the presence of DFMO+spermidine+PTI compound. […] This was followed by adding 10 μL of […] and 5 μM spermidine (FAC 5 mM DFMO and 1 μM spermidine) in assay medium with a Beckman BioRAPTR FRD dispenser or 10 μL of 5 mM DFMO added in assay medium (positive control). […] A PTI compound is expected to block the entry or disrupt the intracellular trafficking of spermidine and inhibit the ability of spermidine to rescue the growth or viability of DFMO treated cells Cytotoxicity

CHO cells [3] = test: Ant44 rescue assay in CHO cells (Assay 1); type: cell-based, Chinese hamster; details: for IC50 / EC50: Cricetulus griseus; for Ant44 EC40: Table 1; for Active in Ant44 assay?: Table 2, in CHO; for Ant44 IC50: Table 4B
Description: CHO K1 cells were grown in growth medium (RPMI+10% FBS+1×P/S+1% l-glutamine) to 70% confluency, washed in PBS and trypsinized. Cells were plated in assay medium (serum free RPMI+2% FBS+1×l-glutamine+1×P/S+[…] aminoguanidine) at 50000 cells/mL for 200 cells per well in 4 ul using a Thermo Multidrop Combi into a 1536-well white Aurora plate.
Ant44 is a cytotoxic polyamine, i.e., N^1-(9-anthracenyl)-homospermidine. A non-toxic PTI compound would block entry or intracellular trafficking of the Ant44 toxin and rescue the cells back to high viability. Therefore, this screen tested for compounds which rescued cells from Ant44 toxicity. […] This was followed by adding 10 uL of 10 uM Ant44 (FAC 2 uM) in assay medium with a Beckman BioRAPTR FRD dispenser or 10 uL of cells added in assay medium (positive control).

[4] = CHO, Table 7, read-out: SAR IC50 DFMO assay
[5] = Table 1 HTS top hits, CHO cells, read-out: DFMO Assay IC50
[6] = CHO, Table 7, read-out: SAR IC50 Ant44 assay
[7] = Table 1 HTS top hits, CHO cells, read-out: Ant44 EC50
[8] = Table 1 HTS top hits, CHO cells
[9] = CHO, Table 4B, read-out: DFMO/CHO IC50
[10] = CHO, Table 2, Active in Ant44 assay?, read-out: Ant44 assay EC50 in CHO

Compound | IC50 at 48 h (CHO cells [1]) [µM] | Tox (Ant44) (CHO cells [1]; CHO cells) | tox (DFMO Assay) (CHO cells [1]; CHO cells) | IC50 [2, 4] [µM] | IC50 [2, 5] [µM] | IC50 (CHO cells [3]; [6]) [µM] | EC50 (CHO cells [3]; [7]) [µM] | other results
NCCC[C@](N)(C(=O)O)C(F)F [DFMO, alpha-difluoromethylornithine, reference compound] |  |  |  |  |  |  |  | IC50 (CHO cells [1]; Cricetulus griseus, CHO, 48 h, read-out: 48 h IC50): 4200 µM
COc1ccccc1C(=O)Nc1ccc(N2CCN(c3cc(Cl)ccc3C)CC2)cc1C(=O)O [SBI-0351221, 5-(4-(5-chloro-2-methylphenyl)piperazin-1-yl)-2-(2-methoxybenzamido)benzoic acid] | 19 | SBI- 0351221.0002 (10 EC50) Tox >10 μM | SBI- 0351221.0002 (IC50 ~10), toxic >10 μM | 21 | ~10 | 2 | 10 | 
Cc1ccc(C)c(N2CCN(c3ccc(N4C(=O)CC(c5ccccc5)C4=O)cc3[N+](=O)[O-])CC2)c1 (stereo not shown) [SBI-0372958] | 32 |  |  | 27 |  |  |  | 
COc1ccc(CC(=O)Nc2ccc(N3CCN(c4cc(Cl)ccc4C)CC3)cc2C(=O)O)cc1 [SBI-0754480] | 24 |  | > 20 µM |  | 5 to 10 | 32 | 31 | 
COc1ccccc1N1CCN(c2ccc(N3C(=O)CCC3=O)cc2[N+](=O)[O-])CC1 [SBI-0800661] | 27 |  |  | 30 | > 20 | > 40 |  | Ant44 EC50 (CHO cells [3]; [8]): SBI- 0800661.0001 No effect
COc1ccc(C(=O)Nc2ccc(N3CCN(c4cc(Cl)ccc4C)CC3)c(C(=O)O)c2)cc1 [SBI-0800662] | 14 |  |  | 5 | ~5 | > 40 |  | Ant44 EC50 (CHO cells [3]; [8]): SBI- 0800662.0001 No effect
Cc1cccc(N2CCN(c3ccc(NC(=O)c4ccccc4F)cc3C(=O)O)CC2C)c1 (stereo not shown) [SBI-0800663] | > 40 |  |  | > 40 |  |  |  | 
COc1ccccc1N1CCN(c2ccc(NC(=O)c3cccs3)cc2C(=O)O)CC1 [SBI-0800666] | > 40 |  |  | 27 | 20 to 32 | > 40 |  | Ant44 EC50 (CHO cells [3]; [8]): SBI- 0800666.0001 No effect
Cc1ccc(C(=O)Nc2ccc(N3CCN(c4cc(Cl)ccc4C)CC3)c(C(=O)O)c2)cc1 [SBI-0800669] | 12 |  | > 10 µM | 5 | 2 to 5 | > 40 |  | Ant44 EC50 (CHO cells [3]; [8]): SBI- 0800669.0001 No effect
COc1ccccc1N1CCN(c2ccc(NC(=O)c3ccccc3Cl)c(C(=O)O)c2)CC1 [SBI-0800670] | 36 | SBI- 0800670.0001 (20 EC50) Tox >20 μM | > 15 µM |  | 10 to 15 | 16 | 20 | 
COc1ccc(C(=O)Nc2ccc(N3CCN(c4ccc(C(C)=O)cc4)CC3)cc2C(=O)O)cc1 [SBI-0800674] | 20 | > 5 µM | > 10 µM | 21 | ~5 | > 40 |  | Ant44 EC50 (CHO cells [3]; [8]): no effect
Cc1ccc(CC(=O)Nc2ccc(N3CCN(c4ccccc4Cl)CC3)cc2C(=O)O)cc1 [SBI-0800675] | > 40 | SBI- 0800675.0001 (31 EC50) Tox >31 μM | no tox | 32 | > 25 | 16 | 31 | 
COc1ccccc1C(=O)Nc1ccc(N2CCN(c3cccc(C)c3C)CC2)cc1C(=O)O [SBI-0800676] | 28 | SBI- 0800676.0001 (20 EC50) Tox >20 μM | SBI- 0800676.0001 (IC50 ~15, tox >15) μM | 23 | ~15 | 2 | 20 | 
COc1ccc(C(=O)Nc2ccc(N3CCN(c4ccccc4)CC3)cc2C(=O)O)cc1 [SBI-0800679] |  | SBI- 0800679.0001 EC40 near 20 μM, Tox >20 μM) | > 15 µM | 15 | 10 to 15 | > 40 |  | general toxicity (CHO cells [1]; CHO cells): modest level of toxicity; CHO MTD (CHO cells [1]; hamster): 10 µM; CHO MTD EC50 (CHO cells [1]; hamster): (17) μM; activity in DFMO assay ([2]; CHO cells): active; EC50 ([2]; CHO): 10 µM; IC50 [2, 9]: 15 µM; EC50 (CHO cells [3]; [10]): > 10 µM; Ant44 EC40 (CHO cells [3]; CHO cells): SBI- 0800679.0001 EC40 near 20 μM, Tox >20 μM); Active in Ant44 assay? (CHO cells [3]): Yes; Ant44 IC50 (CHO cells [3]; CHO cells): trace
COc1ccc(C(=O)Nc2ccc(N3CCN(c4ccc(OC)cc4)CC3)cc2C(=O)O)cc1 [SBI-0800680] | > 40 | ~5 µM | no tox | > 40 | > 31 | > 40 | 31 | 
COc1ccc(C(=O)Nc2ccc(N3CCN(c4ccccc4Cl)CC3)cc2C(=O)O)cc1 [SBI-0800682] | 28 | > 20 µM | > 10 µM | 27 | 10 to 15 | > 40 |  | Ant44 EC40 (CHO cells [3]; CHO cells): ~15 µM
CCOc1ccccc1N1CCN(c2ccc(NC(=O)c3ccc(OC)cc3)c(C(=O)O)c2)CC1 [SBI-0800683] | 37 | SBI- 0800683.0001 (20 μM EC50) Tox >20 μM | SBI- 0800683.0001 (IC50 ~20 μM, tox >20 μM) | 20 | ~20 | > 40 | 20 | CHO MTD (CHO cells [1]; hamster): 20 µM; CHO MTD EC50 (CHO cells [1]; hamster): (37) μM; EC50 ([2]; CHO): ~20 µM; IC50 [2, 9]: 20 µM; EC50 (CHO cells [3]; [10]): ~20 µM; Active in Ant44 assay? (CHO cells [3]): Yes; Ant44 IC50 (CHO cells [3]; CHO cells): trace
COc1ccc(C(=O)Nc2ccc(N3CCN(c4cccc(C)c4C)CC3)cc2C(=O)O)cc1 [SBI-0800686] |  | SBI- 0800686.0001 Tox >10, EC50 near 10 μM | SBI- 0800686.0001 (IC50 ~5, tox >5) μM |  | ~5 |  | ~10 | 
CCN(CC)C(=O)CN1CCN(c2ccc(NC(=O)c3ccc(OC)cc3)c(C(=O)O)c2)CC1 [SBI-0800690] | 28 |  | SBI- 0800690.0001 (IC50 ~20, tox >20) μM | > 40 | ~20 | > 40 |  | Ant44 EC50 (CHO cells [3]; [8]): SBI- 0800690.0001 No effect
COc1ccc(C(=O)Nc2ccc(N3CCCN(c4ncccn4)CC3)cc2C(=O)O)cc1 [SBI-0800691] | > 40 | No tox | No tox | > 40 |  | 12 | 10 to 15 | MTD CHO (CHO cells [1]; hamster): >32 µM; DFMO Assay IC50 [2, 8]: No effect; Active in DFMO assay? ([2]; Table 3, in CHO): No in CHO; DFMO/CHO IC50 ([2]; Table 5B): trace; activity in Ant44 assay (CHO cells [3]; CHO cells): robust Ant44 uptake inhibition activity; EC50 (CHO cells [3]; CHO, Table 3, read-out: Ant44 rescue EC50 CHO): ~11 µM; IC50 (CHO cells [3]; Table 5B, CHO cells, read-out: Ant44 IC50): 12 µM
COc1ccc(C(=O)Nc2ccc(N3CCC(N4CCCCC4)CC3)cc2C(=O)O)cc1 [SBI-0800694] | > 40 |  |  | > 40 |  |  |  | 
